Reference: PubChem BioAssay (NCI)
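48-hour exposure; five concentrations; linearly interpolated endpoints. GI50 = concentration required for 50% inhibition of growth. TGI is the concentration that stops growth completely.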

Legend:
Test in all cases: DTP human tumour cell line panel, 48 h
786-0 renal = test system: 786-0 renal
A498 renal = test system: A498 renal
A549 NSCLC = test system: A549 NSCLC
ACHN renal = test system: ACHN renal
BT-549 breast = test system: BT-549 breast
CAKI-1 renal = test system: CAKI-1 renal
CCRF-CEM leukemia = test system: CCRF-CEM leukemia
COLO 205 colon = test system: COLO 205 colon
DU-145 prostate = test system: DU-145 prostate
EKVX NSCLC = test system: EKVX NSCLC
HCC-2998 colon = test system: HCC-2998 colon
HCT-116 colon = test system: HCT-116 colon
HCT-15 colon = test system: HCT-15 colon
HL-60(TB) leukemia = test system: HL-60(TB) leukemia
HOP-62 NSCLC = test system: HOP-62 NSCLC
HOP-92 NSCLC = test system: HOP-92 NSCLC
HS 578T breast = test system: HS 578T breast
HT29 colon = test system: HT29 colon
IGROV1 ovarian = test system: IGROV1 ovarian
K-562 leukemia = test system: K-562 leukemia
KM12 colon = test system: KM12 colon
LOX IMVI melanoma = test system: LOX IMVI melanoma
M14 melanoma = test system: M14 melanoma
MALME-3M melanoma = test system: MALME-3M melanoma
MCF7 breast = test system: MCF7 breast
MDA-MB-231 breast = test system: MDA-MB-231 breast
MDA-MB-435 = test system: MDA-MB-435
MOLT-4 leukemia = test system: MOLT-4 leukemia
NCI-H226 lung = test system: NCI-H226 lung
NCI-H23 lung = test system: NCI-H23 lung
NCI-H460 lung = test system: NCI-H460 lung
NCI-H522 lung = test system: NCI-H522 lung
NCI/ADR-RES ovarian = test system: NCI/ADR-RES ovarian
OVCAR-3 ovarian = test system: OVCAR-3 ovarian
OVCAR-4 ovarian = test system: OVCAR-4 ovarian
OVCAR-5 ovarian = test system: OVCAR-5 ovarian
OVCAR-8 ovarian = test system: OVCAR-8 ovarian
PC-3 prostate = test system: PC-3 prostate
RPMI-8226 leukemia = test system: RPMI-8226 leukemia
RXF 393 renal = test system: RXF 393 renal
SF-268 CNS = test system: SF-268 CNS
SF-295 CNS = test system: SF-295 CNS
SF-539 CNS = test system: SF-539 CNS
SK-MEL-2 melanoma = test system: SK-MEL-2 melanoma
SK-MEL-28 melanoma = test system: SK-MEL-28 melanoma
SK-MEL-5 melanoma = test system: SK-MEL-5 melanoma
SK-OV-3 ovarian = test system: SK-OV-3 ovarian
SN12C renal = test system: SN12C renal
SNB-19 CNS = test system: SNB-19 CNS
SNB-75 CNS = test system: SNB-75 CNS
SR leukemia = test system: SR leukemia
SW-620 colon = test system: SW-620 colon
T-47D breast = test system: T-47D breast
TK-10 renal = test system: TK-10 renal
U251 CNS = test system: U251 CNS
UACC-257 melanoma = test system: UACC-257 melanoma
UACC-62 melanoma = test system: UACC-62 melanoma
UO-31 renal = test system: UO-31 renal

## CCOc1cc(-c2nncn2C)ccc1Nc1ncc2cc(C)nc(NCC(C)(C)C)c2n1
786-0 renal
  GI50: > 100 µM
  TGI: > 100 µM
A498 renal
  GI50: 0.514 µM
  TGI: > 100 µM
A549 NSCLC
  GI50: 2.34 µM
  TGI: > 100 µM
ACHN renal
  TGI: > 100 µM
BT-549 breast
  GI50: > 80.5 µM
  TGI: > 100 µM
CAKI-1 renal
  GI50: > 26.6 µM
  TGI: > 100 µM
CCRF-CEM leukemia
  GI50: 0.321 µM
  TGI: > 100 µM
COLO 205 colon
  GI50: 1.4 µM
  TGI: > 100 µM
DU-145 prostate
  GI50: > 30.7 µM
  TGI: > 100 µM
EKVX NSCLC
  TGI: > 100 µM
HCC-2998 colon
  GI50: > 100 µM
  TGI: > 100 µM
HCT-116 colon
  GI50: 0.0849 µM
  TGI: > 100 µM
HCT-15 colon
  GI50: 0.193 µM
  TGI: > 100 µM
HL-60(TB) leukemia
  GI50: > 100 µM
  TGI: > 100 µM
HOP-62 NSCLC
  GI50: > 26.2 µM
  TGI: > 100 µM
HOP-92 NSCLC
  GI50: > 26 µM
  TGI: > 100 µM
HS 578T breast
  TGI: > 100 µM
HT29 colon
  GI50: 1.78 µM
  TGI: > 100 µM
IGROV1 ovarian
  GI50: > 100 µM
  TGI: > 100 µM
K-562 leukemia
  TGI: > 100 µM
KM12 colon
  GI50: > 100 µM
  TGI: > 100 µM
LOX IMVI melanoma
  GI50: 1.1 µM
  TGI: > 100 µM
M14 melanoma
  GI50: > 100 µM
  TGI: > 100 µM
MALME-3M melanoma
  GI50: > 100 µM
  TGI: > 100 µM
MCF7 breast
  TGI: > 100 µM
MDA-MB-231 breast
  TGI: > 100 µM
MDA-MB-435
  GI50: > 100 µM
  TGI: > 100 µM
MOLT-4 leukemia
  TGI: > 100 µM
NCI-H226 lung
  GI50: > 23.5 µM
  TGI: > 100 µM
NCI-H23 lung
  GI50: > 89.7 µM
  TGI: > 100 µM
NCI-H460 lung
  GI50: 0.535 µM
  TGI: > 100 µM
NCI-H522 lung
  GI50: > 64.4 µM
  TGI: > 100 µM
NCI/ADR-RES ovarian
  GI50: 1.06 µM
  TGI: > 100 µM
OVCAR-3 ovarian
  GI50: > 27.5 µM
  TGI: > 100 µM
OVCAR-4 ovarian
  GI50: > 29.3 µM
  TGI: > 100 µM
OVCAR-5 ovarian
  GI50: > 100 µM
  TGI: > 100 µM
OVCAR-8 ovarian
  TGI: > 100 µM
PC-3 prostate
  TGI: > 100 µM
RPMI-8226 leukemia
  GI50: 2.31 µM
  TGI: > 100 µM
RXF 393 renal
  GI50: 2.33 µM
  TGI: > 100 µM
SF-268 CNS
  GI50: > 100 µM
  TGI: > 100 µM
SF-295 CNS
  GI50: > 100 µM
  TGI: > 100 µM
SF-539 CNS
  TGI: > 100 µM
SK-MEL-2 melanoma
  GI50: > 100 µM
  TGI: > 100 µM
SK-MEL-28 melanoma
  GI50: > 100 µM
  TGI: > 100 µM
SK-MEL-5 melanoma
  GI50: > 24 µM
  TGI: > 100 µM
SK-OV-3 ovarian
  GI50: > 100 µM
  TGI: > 100 µM
SN12C renal
  GI50: > 100 µM
  TGI: > 100 µM
SNB-19 CNS
  GI50: > 100 µM
  TGI: > 100 µM
SNB-75 CNS
  GI50: > 26 µM
  TGI: > 100 µM
SR leukemia
  GI50: 0.15 µM
  TGI: > 75.8 µM
SW-620 colon
  GI50: 0.439 µM
  TGI: > 100 µM
T-47D breast
  GI50: 2.83 µM
  TGI: > 100 µM
TK-10 renal
  GI50: > 100 µM
  TGI: > 100 µM
U251 CNS
  GI50: > 100 µM
  TGI: > 100 µM
UACC-257 melanoma
  GI50: > 100 µM
  TGI: > 100 µM
UACC-62 melanoma
  GI50: > 100 µM
  TGI: > 100 µM

## O=C(/C=C/c1ccccc1)c1cccc2ccccc12
786-0 renal
  GI50: 2.82 µM
  TGI: 7.25 µM
A498 renal
  GI50: 2.3 µM
  TGI: 6.75 µM
A549 NSCLC
  GI50: 2.96 µM
  TGI: 10.3 µM
ACHN renal
  GI50: 3.66 µM
  TGI: 14.3 µM
BT-549 breast
  GI50: 2.31 µM
  TGI: 5.86 µM
CAKI-1 renal
  GI50: 2.11 µM
  TGI: 6.62 µM
CCRF-CEM leukemia
  GI50: 2.71 µM
  TGI: 17.8 µM
COLO 205 colon
  GI50: 5.51 µM
  TGI: 18.2 µM
DU-145 prostate
  GI50: 3.63 µM
  TGI: 13 µM
EKVX NSCLC
  GI50: 2.75 µM
  TGI: 12.6 µM
HCC-2998 colon
  GI50: 2.65 µM
  TGI: 6.81 µM
HCT-116 colon
  GI50: 1.96 µM
  TGI: 4.1 µM
HCT-15 colon
  GI50: 3.2 µM
  TGI: 13.4 µM
HL-60(TB) leukemia
  GI50: 1.49 µM
  TGI: 5.21 µM
HOP-62 NSCLC
  GI50: 4.25 µM
  TGI: 13.5 µM
HOP-92 NSCLC
  GI50: 2.05 µM
  TGI: 6.8 µM
HS 578T breast
  GI50: 5.43 µM
  TGI: > 100 µM
HT29 colon
  GI50: 3.69 µM
  TGI: 12.9 µM
IGROV1 ovarian
  GI50: 3.4 µM
  TGI: 10.9 µM
K-562 leukemia
  GI50: 1.61 µM
  TGI: 5.26 µM
KM12 colon
  GI50: 1.89 µM
  TGI: 3.77 µM
LOX IMVI melanoma
  GI50: 1.6 µM
  TGI: 4.69 µM
M14 melanoma
  GI50: 2.39 µM
  TGI: 5.19 µM
MALME-3M melanoma
  GI50: 6.12 µM
  TGI: 22.4 µM
MCF7 breast
  GI50: 3.07 µM
  TGI: 11.1 µM
MDA-MB-231 breast
  GI50: 4.16 µM
  TGI: 18.3 µM
MDA-MB-435
  GI50: 2.64 µM
  TGI: 14.7 µM
MOLT-4 leukemia
  GI50: 1.43 µM
  TGI: 5.68 µM
NCI-H226 lung
  GI50: 1.99 µM
  TGI: 6.32 µM
NCI-H23 lung
  GI50: 3.19 µM
  TGI: 11.9 µM
NCI-H460 lung
  GI50: 1.84 µM
  TGI: 3.86 µM
NCI-H522 lung
  GI50: 2.75 µM
  TGI: 8.41 µM
NCI/ADR-RES ovarian
  GI50: 3.27 µM
  TGI: 19.6 µM
OVCAR-3 ovarian
  GI50: 2.01 µM
  TGI: 4.71 µM
OVCAR-5 ovarian
  GI50: 3.78 µM
  TGI: 17.4 µM
OVCAR-8 ovarian
  GI50: 1.82 µM
  TGI: 3.97 µM
PC-3 prostate
  GI50: 2.81 µM
  TGI: 7.78 µM
RPMI-8226 leukemia
  GI50: 1.93 µM
  TGI: 5.86 µM
RXF 393 renal
  GI50: 2.38 µM
  TGI: 8.04 µM
SF-268 CNS
  GI50: 1.99 µM
  TGI: 5.13 µM
SF-539 CNS
  GI50: 3.5 µM
  TGI: 11 µM
SK-MEL-2 melanoma
  GI50: 2.97 µM
  TGI: 8.3 µM
SK-MEL-28 melanoma
  GI50: 5.02 µM
  TGI: 16.6 µM
SK-MEL-5 melanoma
  GI50: 2.98 µM
  TGI: 11.7 µM
SK-OV-3 ovarian
  GI50: 3.11 µM
  TGI: 11.3 µM
SN12C renal
  GI50: 4.29 µM
  TGI: 15.4 µM
SNB-19 CNS
  GI50: 4.1 µM
  TGI: 15.3 µM
SNB-75 CNS
  GI50: 2.19 µM
  TGI: 7.27 µM
SR leukemia
  GI50: 1.17 µM
  TGI: 3.75 µM
SW-620 colon
  GI50: 2.42 µM
  TGI: 6 µM
T-47D breast
  GI50: 2.89 µM
  TGI: 21.2 µM
TK-10 renal
  GI50: 4.04 µM
  TGI: 14.2 µM
U251 CNS
  GI50: 2.14 µM
  TGI: 6.02 µM
UACC-257 melanoma
  GI50: 4.13 µM
  TGI: 15.5 µM
UACC-62 melanoma
  GI50: 3.46 µM
  TGI: 11.8 µM
UO-31 renal
  GI50: 2.68 µM
  TGI: 12.6 µM
